{"source": "patent US8119640B2", "about": "“Hedgehog pathway antagonists methods of use” (The Board of Trustees of the Leland Stanford Junior …, priority 2008, dated 2012)", "key": {"MAPK": {"test_system": "MAPK", "settings": "NIH-3T3 cells, 10 μM U0126"}, "Smo": {"target": "Smo (Mus musculus, UniProt P56726)", "experiment": "FRET assay for Smo multimerization (Smo-CFP/Smo-YFP)", "format": "cell-based, murine", "set-up": "expressed in transfected cells; host or cells: NIH-3T3", "settings": "10 μM cyclopamine, 500 nM SAG, 10 μM HPIs", "description": "FRET assay for Smo multimerization. […] The cells were washed with PBS buffer, fixed with 4% paraformaldehyde for 20 min, and mounted on slides in 80% glycerol. Fluorescence signals were acquired with the 100× objective of a Zeiss LSM510 confocal microscope with the following conditions: CFP was excited by 458-nm light and the emission was collected through a BP 480-520-nm filter. YFP was excited by 514-nm light and the emission was collected through a BP 535-590-nm filter. The CFP signal was obtained before and after photobleaching YFP(CFPBP and CFPAP, respectively) using the full power of the 514-nm laser line for 1-2 min at the top half of each cell, leaving the bottom half unbleached as an internal control. The CFP fluorescence intensity was analyzed using Metamorph software (Universal Imaging Corp.), and the energy transfer efficiency was calculated using the formula: FRET %=((CFPAP−CFPBP)/CFPAP)×100. Photobleached areas in 11-19 cells were analyzed for each experimental condition."}, "C3H10T(1/2) cells": {"test_system": "C3H10T(1/2) cells", "experiment": "C3H10T(1/2) assay for Hh pathway activation (alkaline phosphatase)", "format": "cell-based", "description": "C3H10T(1/2) assay for Hh pathway activation. C3H10T(1/2) cells (ATCC) were plated into 96-well plates using DMEM containing 10% FBS, 100 U/mL penicillin, 0.1 mg/mL streptomycin, 5% Shh-N-conditioned medium, and various concentrations of the Hh pathway inhibitors. After approximately 40 h, the cells were washed with PBS and lysed in 50 μL of buffer containing 50 mM Tris-HCl, pH 9.5, 150 mM NaCl, 5 mM MgCl2, and 1% Triton X-100. Alkaline phosphatase activities in the cell lysates were quantified by adding 10 μL of the lysate to 50 μL of CDP-Star chemiluminescence reagent (Perkin Elmer) and measuring the resulting chemiluminescence on a Veritas microplate luminometer."}, "Hh pathway [1]": {"test_system": "Hh pathway", "experiment": "Shh-LIGHT2 assay for Hh pathway activation (Gli-dependent firefly luciferase)", "format": "cell-based", "settings": "0.5 μM SAG versus Shh", "description": "Shh-LIGHT2 assay for Hh pathway activation and library screening conditions. h-N-conditioned medium was prepared as previously described. […] For 96-well plate assays, Shh-LIGHT2 cells were seeded into each plate (10,000 cells/well) and cultured to confluency. The Shh-LIGHT2 cells were then grown in DMEM containing 0.5% CS, 100 U/mL penicillin, 0.1 mg/mL streptomycin, either 5% Shh-N-conditioned medium or 500 nM SAG, and various concentrations of the HPIs. After the cells were cultured for another 30 h, the resulting firefly and Renilla luciferase activities were measured using a Dual Luciferase Reporter kit (Promega) and a Veritas microplate luminometer (Turner Biosystems).\nWhen the cells reached >90% confluency, they were removed by trypsinization and diluted to a final volume of 50 mL medium. This cell suspension was then plated into clear-bottom, white-walled 384-well plates using a Titertek Multidrop dispenser (50 μL/well) and the cells were cultured until they reached confluency (3-4 days). […] The plates were then placed into an automated Staccato system (Caliper Life Sciences), which includes an automated CO2 incubator. An automated protocol was then run, in 3 which a Multidrop dispenser added 10 μL of a SAG solution in 0.5% CS medium (final SAG concentration of 500 nM) to columns 1-22 and 100 nL of each compound solution was added to the plates using a V&P Scientific pin tool, resulting in a final compound screening concentration of 10 μM. The SAG-free wells were used as negative controls. After 28-32 h, the assay medium was manually removed and the plates were frozen. To assay the firefly luciferase activities, the plates were thawed and placed into a Twister II stacker in the Staccato system. Bright-Glo luciferase substrate (Promega) was added by the Multidrop dispenser and the plates were analyzed on an Analyst GT microplate reader (2 min in the dark, 0.2 sec integration/well; Molecular Devices). Hits were defined as compounds that reduce the firefly luciferase signal by at least 50% compared to inhibitor-free controls. Primary hits were then re-tested in duplicate in an eight-point, 1:1 serially diluted doseresponse curve with a starting concentration of 20 μM. In these experiments, the median inhibitory concentration (IC50) for both firefly and Renilla luciferase were determined using a Dual-Glo kit (Promega)."}, "Hh pathway [2]": {"test_system": "Hh pathway", "settings": "β-galactosidase reporter"}, "Hh pathway [3]": {"test_system": "Hh pathway", "experiment": "Shh-EGFP assay for Hh pathway activation", "format": "cell-based", "settings": "3 μM cyclopamine; 15 μM HPI-1, 20 μM HPI-2, 30 μM HPI-3, 30 μM HPI-4", "description": "Shh-EGFP assay for Hh pathway activation. A Gli-dependent enhanced green fluorescent protein reporter (Shh-EGFP) was generated by excising firefly luciferase cDNA from the 8XGliBs vector using NcoI/Hpal, and ligating in EGFP cDNA excised from the pEGFP-C1 vector (Clontech) by NcoI/Af/II digestion. […] The cells were grown to confluency and treated with DMEM containing 0.5% CS, 100 U/mL penicillin, 0.1 mg/mL streptomycin, and 5% Shh-N-conditioned medium for 30 h. Following Shh-N treatment, the adherent cultures were dissociated into single cells with 0.05% Trypsin-EDTA (300 μL/well; Invitrogen) for 5 min. The cells were then suspended in 1 mL of PBS containing 1% CS and sorted on a BD FACSAria (excitation: 488 nm; emission: 530/30 nm) to enrich for cells expressing EGFP in a Shh-N-responsive manner. […] To identify Shh-EGFP clones with maximum Shh-N-responsiveness, individual lines were seeded into 24-well plates (45,000 cell/well) and cultured for 48 h. The cells were then treated with DMEM containing 0.5% CS, 100 U/mL pencillin, 0.1 mg/mL streptomycin or the culture medium plus 5% Shh-N-conditioned medium. After 30 h, the adherent cultures were treated with 0.05% trypsin-EDTA (150 μL/well; Invitrogen) for 5 min to dissociate them into single cells. The cells were then resuspended in 500 μL of PBS containing 1% CS and analyzed on a BD FACSCalibur (excitation: 488 nm; emission: 530/30 nm). 10,000 cells were used to assess EGFP expression levels as a measure of Hh pathway activation, and the data was analyzed using FlowJo software (Tree Star). Clones with low basal EGFP levels and maximum Shh-Ninduced EGFP expression were selected for further use. To assess the inhibitory activities of the HPIs in the Shh-EGFP cells, a clonal line with maximum Shh-responsiveness was cultured in 24-well plates as described above. […] The resulting EGFP levels were then evaluated by FACS and quantified using the FlowJo software."}, "Hh pathway [4]": {"test_system": "Hh pathway"}, "FLAG-Gli2": {"test_system": "FLAG-Gli2", "experiment": "Analysis of Gli2 processing and Shh-dependent Gli2 stabilization", "format": "cell-based, mouse", "settings": "Shh-EGFP FLAG-Gli2 cells, absence and presence of Shh, 24 h", "description": "Analysis of Gli2 processing and Shh-dependent Gli2 stabilization. […] Each compound incubation was also done in the absence and presence of 5% Shh-N-conditioned medium, and the cells were maintained under these conditions for 24 h. The cells were subsequently solubilized in lysis buffer (100 μL/well; 50 mM Tris-HCl, pH 7.4, 1% Triton X-100, 250 mM NaCl, 2 mM EDTA, 20 mM NaF, 2 mM Na3VO4, 2 mM 2-mercaptoethanol, EDTA-free protease inhibitor cocktail (Roche)). This suspension was transferred to a 1.5-mL centrifuge tube and incubated on ice for 30 min, with vortexing every 5 min. The cell lysates were then centrifuged at 20,000×g at 4° C. for 20 min. Supernatants were removed, and a BCA protein assay was performed to quantify protein levels. Mouse anti-FLAG M2 agarose slurry (20 μL, Sigma) was pelleted by centrifugation and incubated with 800 ng of protein from each condition for 90 min at 4° C. and then washed three times with 1 mL of wash buffer (75 mM Tris-HCl buffer, pH 8.0 containing 225 mM NaCl, 0.5% Triton X-100) and centrifuged at 2,300×g at 4° C. The agarose beads were suspended in 30 μL of 1×SDS-PAGE sample buffer (50 mM Tris-HCl, pH 6.8 containing 10% glycerol, 2% SDS, 50 mM DTT, 200 mM 2-mercaptoethanol, and 0.001% bromophenol blue), and the mixture was boiled for 5 min. The samples were then resolved on a 4-12% Bis-Tris Criterion XT gel and transferred to a PVDF membrane. The membrane was dehydrated with methanol, and then probed with rabbit anti-FLAG antibody (Sigma; 1:1,000 dilution in blocking buffer (PBS 21 containing 3% non-fat dried milk and 0.01% Tween 20)) for 90 min. […] Blots were washed 4×3 min in PBS, and the immunoreactive bands were detected with a SuperSignal West Dura kit and a ChemiDoc XRS system. Protein bands were quantified using Quantity One software (Bio-Rad). For each experiment, boxes of equal size were drawn around the FLAG-Gli2 and FLAG-Gli2R bands. Band intensities were then normalized to the average intensity for all bands in a given experiment. The results from all experiments were averaged and normalized relative to the basal level of FLAG-Gli2 (DMSO treatment without Shh-N-conditioned medium)."}}, "data": [{"smiles": "N#CC(=C(/N)Sc1ccccc1N)/C(C#N)=C(\\N)Sc1ccccc1N", "note": "[Compound U0126]", "values": [{"measurement": "PDGF-induced phosphorylation of p44/p22 MAPK", "setting": "MAPK", "value": "blocked p44/p22 MAPK phosphorylation"}]}, {"smiles": "CNC1CCC(N(Cc2cccc(-c3ccncc3)c2)C(=O)c2sc3ccccc3c2Cl)CC1", "note": "(centres unmarked) [SAG, reference compound]", "values": [{"measurement": "Shh-induced fold change in Smo-CFP/Smo-YFP FRET", "setting": "Smo", "value": "Shh-insensitive"}]}, {"smiles": "CC1=C2C[C@H]3[C@@H](CC=C4C[C@@H](O)CC[C@@]43C)[C@@H]2CC[C@]12O[C@@H]1C[C@H](C)CN[C@H]1[C@H]2C", "note": "[cyclopamine, reference compound]", "values": [{"measurement": "Block of Shh-induced differentiation of C3H10T(1/2) cells into osteoblasts", "setting": "C3H10T(1/2) cells", "value": "block the Shh-induced differentiation"}, {"measurement": "Inhibition of Hh pathway activation induced by 0.5 μM SAG", "setting": "Hh pathway [1]", "value": "resistant to inhibition"}, {"measurement": "Inhibition of Hh pathway activity in Ptch1-/- fibroblasts", "setting": "Hh pathway [2]", "value": "inhibit Hh pathway activity"}, {"measurement": "Fluorescence intensity of Shh-treated Shh-EGFP cells (FACS, words)", "setting": "Hh pathway [3]", "value": "fluorescence intensities similar to those of untreated cells"}, {"measurement": "Inhibition of SmoM2-dependent Gli reporter expression in SmoM2-LIGHT cells", "setting": "Hh pathway [4]", "value": "significantly less potent"}, {"measurement": "FLAG-Gli2 levels and processing (immunoblotting)", "setting": "FLAG-Gli2", "value": "can suppress the effects of Shh"}]}]}
